Read-outs that look alike come from different tables or passages of the source.
Assays:
[1] = biological target: hCYP2D6*1 and hCYPOR (Homo sapiens, UniProt P10635); conditions: V79MZh2D6*1-hOR homogenate; 200 μM racemic bufuralol
Procedure: 30 μg of Sca I linearized pSV450h2D6*1 DNA and 1 μg of Sca I linearized pRc/RSV-hCYPOR DNA were transfected. […] As in the case of transfection samples T1-T5, the expression vector pSV450h2D6*1 was employed in a 30fold excess over resistance vector pRc/RSV-hCYPOR.

[2] = biological target: T1, hCYP2D6 1 (Homo sapiens, UniProt P10635); conditions: cited from earlier work
[3] = system: hCYP2D6 1; conditions: cited from earlier work; for Km: racemic bufuralol
[4] = biological target: T1, hCYP2D6 1; conditions: V79MZh2D6*1 homogenate, NADPH (Bogni, 1999); racemic bufuralol; cited from earlier work
[5] = biological target: T2, hCYP2D6 (Homo sapiens, UniProt P10635); test: Effect of DMSO on tamoxifen-4-hydroxylase activity; format: biochemical; set-up: expressed in transfected cells; host or cells: V79MZ Chinese hamster fibroblasts (V79MZh2D6*1, DSM ACC2446; also V79MZh2D6*1-H and -S)
[6] = biological target: T2, hCYP2D6
[7] = biological target: hCYP2D6 9 (Homo sapiens, UniProt P10635, DEL281-281); test: Effect of quinidine on the stability of hCYP2D6 (CO difference spectra); conditions: hCYP2D6 9 (V79MZh2D6*9); quinidine added to the culture medium during cultivation
Procedure: For the preparation of a cell homogenate, the V79MZ cells were cultured in at least three 250 ml tissue culture flasks up to a confluence of 80-100%. […] The medium was discarded, followed by rinsing twice with 5 ml icecold buffer (100 mM potassium phosphate, pH 7.4). The cells were loosened from the dish by means of a rubber scraper into 4 ml of icecold buffer, combined and pelleted by centrifugation for 10 min at 1500×g and 4° C. […] All aliquots were shock frozen in liquid nitrogen to disrupt the cells and afterwards stored at −80° C. until use.
The supernatant was introduced into a 2 ml glas-on-glas homogenizator, reduced by adding several crystals of sodium dithionite (Sigma, Deisenhofen) followed by 15 strokes, and split up between two quartz cuvettes.

[8] = system: human liver microsomes; conditions: cited from earlier work; for contribution to the 4-hydroxylation of tamoxifen: human liver microsomes (Crewe et al., 1997); for tamoxifen-4-hydroxylation activity: 1 μM tamoxifen (Crewe et al., 1997)
[9] = system: V79MZh2D6 cells
[10] = system: V79MZh2D6 cells; test: Supplementation of culture medium with heme sources (cytotoxic limit, bufuralol hydroxylase activity); conditions: up to the cytotoxic limit
[11] = AHH-1 TK+/− (h2D6Val/OR) microsomes, CYPOR/NADPH (Gentest, produkt # M117r)
[12] = E. coli, purified, CYPOR/NADPH (Gillam et al., 1995)
[13] = Sf9 insect cells cell extract, CYPOR/NADPH (Paine et al., 1996)
[14] = AHH-1 TK+/− (h2D6Metv2) microsomes, NADPH (Penman et al., 1993)
[15] = Hep G2 cell lysate, CuOOH (Tyndale et al., 1991a)
[16] = S. cerevisiae W(R) microsomes, Yred/NADPH (Oscarson et al., 1997)
[17] = Sf9 insect cells membranes, CYPOR/NADPH (Evert et al., 1997)
[18] = Sf9 insect cells membranes, CYPOR/NADPH (Patten et al., 1996)

T2 sequence (P10635 whole entry): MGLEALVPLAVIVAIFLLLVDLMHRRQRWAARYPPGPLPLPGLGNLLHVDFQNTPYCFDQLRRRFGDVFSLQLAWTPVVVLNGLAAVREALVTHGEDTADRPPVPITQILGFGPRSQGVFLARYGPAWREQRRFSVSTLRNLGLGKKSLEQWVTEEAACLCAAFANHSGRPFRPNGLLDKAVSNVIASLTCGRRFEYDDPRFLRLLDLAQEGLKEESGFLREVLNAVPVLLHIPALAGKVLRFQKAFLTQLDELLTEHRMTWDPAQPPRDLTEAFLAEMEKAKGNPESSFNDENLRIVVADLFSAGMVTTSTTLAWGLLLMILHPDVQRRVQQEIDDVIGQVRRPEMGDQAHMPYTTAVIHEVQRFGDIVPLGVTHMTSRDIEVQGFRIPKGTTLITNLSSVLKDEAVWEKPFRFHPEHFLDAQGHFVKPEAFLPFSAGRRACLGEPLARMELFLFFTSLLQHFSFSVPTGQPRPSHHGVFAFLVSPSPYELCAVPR
T1 sequence (P10635 whole entry): as above
Chain of hCYP2D6 9 (P10635 with tags, fused parts or gaps DEL281-281): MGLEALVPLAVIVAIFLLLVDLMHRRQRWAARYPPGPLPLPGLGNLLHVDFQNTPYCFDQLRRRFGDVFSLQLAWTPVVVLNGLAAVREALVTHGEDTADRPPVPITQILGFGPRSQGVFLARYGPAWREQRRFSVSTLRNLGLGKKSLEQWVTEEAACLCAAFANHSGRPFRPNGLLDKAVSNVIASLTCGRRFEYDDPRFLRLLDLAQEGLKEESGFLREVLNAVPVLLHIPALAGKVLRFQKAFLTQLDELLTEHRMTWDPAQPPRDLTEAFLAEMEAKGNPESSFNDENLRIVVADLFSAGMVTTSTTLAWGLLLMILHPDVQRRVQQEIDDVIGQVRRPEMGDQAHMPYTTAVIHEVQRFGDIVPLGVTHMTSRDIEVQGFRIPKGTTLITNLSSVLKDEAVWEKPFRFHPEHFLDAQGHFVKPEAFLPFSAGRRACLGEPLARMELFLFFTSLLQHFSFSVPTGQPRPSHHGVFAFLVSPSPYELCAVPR

CCc1cccc2cc(C(O)CNC(C)(C)C)oc12 (racemic) [racemic bufuralol]
bufuralol hydroxylase activity [1]: 143 ± 6 pmol/mg/min | Reaction rate (+/−) [2, 11]: 10.38 min⁻¹ | Vmax (+/−) [2, 11]: 550 pmol/mg/min | Reaction rate (+/−) ([2]; purified from human liver, CYPOR/NADPH (Distlerath et al., 1985)): 4.4 to 6.4 min⁻¹ | Reaction rate (+/−) [3, 12]: 1.2 ± 0.1 min⁻¹ | Km [3, 12]: 39 ± 5 µM | Reaction rate (+/−) [3, 13]: 12.23 min⁻¹ | Vmax (+/−) [3, 13]: 370 pmol/mg/min | Km [3, 13]: 4.7 µM | Vmax (+/−) [4]: 153 ± 26 pmol/mg/min

CCc1cccc2cc([C@H](O)CNC(C)(C)C)oc12 [(+)-bufuralol]
Vmax (+) ([3]; AHH-1 TK+/− (2D6Met/Hol) cell lysate, NADPH (Crespi et al., 1991)): 68 ± 0 pmol/mg/min | Vmax (+) ([3]; AHH-1 TK+/− (h2D6Metv2) cell lysate, NADPH (Penman et al., 1993)): 126 ± 1 pmol/mg/min | Reaction rate (+) [3, 14]: 4.5 min⁻¹ | Vmax (+) [3, 14]: 723 ± 35 pmol/mg/min | Vmax (+) ([3]; COS-1 cells homogenate, CYPOR/NADPH (Johansson et al., 1994)): 3.4 pmol/mg/min | Vmax (+) ([3]; COS-1 cells homogenate, NADPH (Kagimoto et al., 1990)): 20 to 50 pmol/mg/min | Reaction rate (+) [3, 15]: 2.3 min⁻¹ | Vmax (+) [3, 15]: 34.1 pmol/mg/min | Reaction rate (+) [3, 16]: 10 min⁻¹ | Vmax (+) [3, 16]: 116 pmol/mg/min | Reaction rate (+) [3, 17]: 26.2 ± 0.4 min⁻¹ | Vmax (+) [3, 17]: 17500 ± 2700 pmol/mg/min | Reaction rate (+) [3, 18]: 0.96 min⁻¹ | Vmax (+) [3, 18]: 500 to 1000 pmol/mg/min

C[S+](C)[O-] [DMSO, dimethylsulfoxide]
tamoxifen-4-hydroxylase activity relative to that obtained at […] DMSO ([5]; 10% DMSO): about 20% | effect on tamoxifen-4-hydroxylase activity ([5]; up to a DMSO concentration of […]): only sligthly affected

CC/C(=C(\c1ccccc1)c1ccc(OCCNC)cc1)c1ccccc1 [Z-N-demethyl-tamoxifen]
metabolism by V79MZh2D6 homogenate (hCYP2D6-catalyzed hydroxylation) [6]: proceeded well

CC/C(=C(\c1ccccc1)c1ccc(OCCN)cc1)c1ccccc1 [Z-N-didemethyl-tamoxifen]
metabolism by V79MZh2D6 homogenate (hCYP2D6-catalyzed hydroxylation) [6]: negligible

CC/C(=C(\c1ccccc1)c1ccc(OCC[N+](C)(C)[O-])cc1)c1ccccc1 [Z-Tamoxifen-N-oxide]
metabolism by V79MZh2D6 homogenate (hCYP2D6-catalyzed hydroxylation) [6]: only to a minor extent

C=C[C@H]1C[N@@]2CC[C@H]1C[C@@H]2[C@@H](O)c1ccnc2ccc(OC)cc12 [quinidine]
increase in the amount of cytochrome P450 [7]: 4-6 fold

CC/C(=C(\c1ccccc1)c1ccc(OCCN(C)C)cc1)c1ccccc1 [tamoxifen]
contribution to the 4-hydroxylation of tamoxifen ([8]; hCYP2C9*1): + | contribution to the 4-hydroxylation of tamoxifen ([8]; hCYP2D6*1): + | contribution to the 4-hydroxylation of tamoxifen ([8]; hCYP2E1): − | contribution to the 4-hydroxylation of tamoxifen ([8]; hCYP3A4): + | tamoxifen-4-hydroxylation activity ([8]; human liver microsomes of extensive metabolizers): 1.1-3 pmol/min/mg protein | tamoxifen-4-hydroxylation activity ([8]; human liver microsomes of poor metabolizers): 0.7-0.8 pmol/min/mg protein

hemin chloride
cytotoxic limit [9]: 10 µM | bufuralol hydroxylase activity per mg total protein in the cell homogenate after supplementation [10]: no increased bufuralol hydroxylase activity

Source: patent US20050130116A1, “Stable expression of polymorphous forms of human cytochrome p450 2d6” (priority 2000, published 2005)
